Results from US5665704A, “Receptor specific atrial natriuretic peptides” (Genentech, Inc., priority 1995, dated 1997).
Where two headings read alike, the source gives them in different places. Bridge positions count the residues as written; N and C are the ends. Square brackets hold non-standard residues; d marks the D form. Peptide text beside a SMILES is read from it. ξ: configuration not given here. ξPhg = NC(C(=O)O)c1ccccc1; Mpa = O=C(O)CCS

How the values were obtained:
hNPR-C = target: T1, hNPR-C (Homo sapiens, UniProt P17342); assay: Binding affinity for clearance receptor hNPR-C
T1 sequence (P17342 27-541): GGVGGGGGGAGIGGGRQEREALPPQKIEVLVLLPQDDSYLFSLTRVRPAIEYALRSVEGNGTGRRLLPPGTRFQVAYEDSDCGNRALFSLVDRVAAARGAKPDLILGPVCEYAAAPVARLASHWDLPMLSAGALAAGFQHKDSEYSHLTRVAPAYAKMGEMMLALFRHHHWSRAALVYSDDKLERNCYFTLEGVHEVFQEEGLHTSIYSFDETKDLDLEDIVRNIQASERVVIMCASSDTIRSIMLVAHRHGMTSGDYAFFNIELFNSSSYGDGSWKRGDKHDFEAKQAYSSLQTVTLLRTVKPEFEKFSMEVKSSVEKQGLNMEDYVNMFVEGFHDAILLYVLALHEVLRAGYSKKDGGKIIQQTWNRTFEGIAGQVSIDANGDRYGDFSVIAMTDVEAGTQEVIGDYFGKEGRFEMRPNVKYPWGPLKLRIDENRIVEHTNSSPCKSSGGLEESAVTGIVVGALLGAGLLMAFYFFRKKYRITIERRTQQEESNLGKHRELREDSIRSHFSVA
Text: For assay systems to measure binding of hANF and the compounds of this invention to hNPR-C see: Schank, D. B., et al., Biochem. Biophys. Res. Comm. 127:433-442 (1985); Scarborough, R. M., J. Biol. Chem. 261:12960-12964 and WO 90/01940.

hNPR-A = target: T2, hNPR-A (Homo sapiens, UniProt P16066); assay: Binding affinity for hNPR-A (competitive displacement of I^125 labeled wild-type ANF)
T2 sequence (P16066 33-1061): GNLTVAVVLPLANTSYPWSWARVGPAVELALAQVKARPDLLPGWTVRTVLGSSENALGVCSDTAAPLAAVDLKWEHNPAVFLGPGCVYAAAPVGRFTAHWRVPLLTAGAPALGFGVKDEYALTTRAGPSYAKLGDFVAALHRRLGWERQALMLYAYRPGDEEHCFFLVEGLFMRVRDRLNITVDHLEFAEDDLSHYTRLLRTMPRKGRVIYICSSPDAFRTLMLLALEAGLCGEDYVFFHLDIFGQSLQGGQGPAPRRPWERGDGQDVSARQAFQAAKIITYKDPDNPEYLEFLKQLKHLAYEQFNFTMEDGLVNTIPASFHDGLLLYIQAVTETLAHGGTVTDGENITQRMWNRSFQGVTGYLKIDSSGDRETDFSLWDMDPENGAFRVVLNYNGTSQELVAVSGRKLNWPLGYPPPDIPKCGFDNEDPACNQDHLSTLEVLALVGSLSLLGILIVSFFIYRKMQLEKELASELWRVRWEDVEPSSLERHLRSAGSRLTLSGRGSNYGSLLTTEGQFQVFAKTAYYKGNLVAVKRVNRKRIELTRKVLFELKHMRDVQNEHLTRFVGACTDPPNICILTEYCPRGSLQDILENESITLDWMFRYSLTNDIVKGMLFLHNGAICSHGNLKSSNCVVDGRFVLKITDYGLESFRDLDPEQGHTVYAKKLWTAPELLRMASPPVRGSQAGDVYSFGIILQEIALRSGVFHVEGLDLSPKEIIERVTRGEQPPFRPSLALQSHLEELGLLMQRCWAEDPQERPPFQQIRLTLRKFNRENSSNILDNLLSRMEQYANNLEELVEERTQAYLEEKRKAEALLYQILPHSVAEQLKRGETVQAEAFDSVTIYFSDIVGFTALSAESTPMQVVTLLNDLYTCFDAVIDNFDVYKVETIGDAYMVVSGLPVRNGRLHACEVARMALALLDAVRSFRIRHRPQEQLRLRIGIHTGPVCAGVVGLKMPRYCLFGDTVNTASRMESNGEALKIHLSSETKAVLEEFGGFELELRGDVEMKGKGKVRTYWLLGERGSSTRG

[1] = target: T3, Human endopeptidase 24.11 (hNEP) (Homo sapiens, UniProt P08473); assay: Degradation of ANF variants by human NEP, half-life by HPLC (Example 22)
Procedure: (§1) The half-life of various ANF variants was measured according to the following procedure.
(§2) ANF Solution: An accurately weighed amount of ANF or variant thereof was diluted with HEPES buffer (5 ml of 1M HEPES Buffer and 0.1 ml of Tween 20 diluted to a 100 ml volume with DI water) to make a 0.5 mg/ml solution.
(§3) hNEP/HEPES Solution: 75 μl of a 1 mg/ml solution of hNEP (see U.S. Pat. No. 4,960,700) is dissolved in 992.5 μl of HEPES buffer (as described above) and vortex mixed. The resulting mixture is stored in a silylated Eppendorf tube and periodically checked for activity against an ANF peptide standard.
(§4) Assay conditions: 150 μl of an ANF solution in the HEPES buffer is diluted with 820 μl HEPES buffer and vortex mixed (1 sec). Careful note of the time is taken as 30 μl of the hNEP/HEPES solution is added and the solution is vortex mixed for 1 sec. and analyzed by periodic removal of constant volume aliquots by the HPLC autosampler. A 2.5 cm×50 cm, C-18 reversed-phase column (15 micron, 300Å]) was used and elution was achieved by using a shallow gradient of increasing acetonitrile. The elution conditions consisted of a 10% to 50% acetonitrile (containing 0.1% TFA) gradient at 0.5% min.^-1. The aqueous phase was 0.1% TFA in water. The peak area of the ANP peptide is recorded at these periodic intervals and a half-life is determined from these values.

[2] = target: T3, Human endopeptidase 24.11 (hNEP); assay: in vitro; settings: isolated enzyme
Procedure: as §1, §2, §3, §4

T3 sequence (P08473 whole entry): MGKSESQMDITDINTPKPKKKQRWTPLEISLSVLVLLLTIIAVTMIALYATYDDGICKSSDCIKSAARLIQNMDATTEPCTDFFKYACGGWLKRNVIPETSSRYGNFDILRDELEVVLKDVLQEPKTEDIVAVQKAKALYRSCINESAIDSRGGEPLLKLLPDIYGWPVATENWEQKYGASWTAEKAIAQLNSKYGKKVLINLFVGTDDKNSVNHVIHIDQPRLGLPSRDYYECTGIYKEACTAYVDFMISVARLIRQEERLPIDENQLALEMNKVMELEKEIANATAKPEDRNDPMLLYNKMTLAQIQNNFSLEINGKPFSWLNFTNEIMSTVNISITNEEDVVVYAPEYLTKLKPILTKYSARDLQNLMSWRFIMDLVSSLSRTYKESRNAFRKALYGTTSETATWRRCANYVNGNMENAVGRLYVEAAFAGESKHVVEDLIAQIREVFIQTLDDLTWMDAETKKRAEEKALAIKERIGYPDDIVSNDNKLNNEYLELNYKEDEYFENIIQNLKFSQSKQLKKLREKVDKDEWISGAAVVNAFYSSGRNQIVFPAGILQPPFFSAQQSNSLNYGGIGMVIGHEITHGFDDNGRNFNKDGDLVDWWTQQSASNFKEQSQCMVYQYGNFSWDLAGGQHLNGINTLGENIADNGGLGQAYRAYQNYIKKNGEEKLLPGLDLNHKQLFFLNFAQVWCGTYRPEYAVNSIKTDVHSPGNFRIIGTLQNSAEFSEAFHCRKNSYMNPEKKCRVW

CC[C@H](C)[C@@H]1NC(=O)[C@H](CCCNC(=N)N)NC(=O)[C@H](CC(=O)O)NC(=O)[C@H]([C@@H](C)CC)NC(=O)[C@H](CCCNC(=N)N)NC(=O)CNC(=O)CNC(=O)[C@H](Cc2ccccc2)NC(=O)[C@@H](NC(=O)[C@H](CO)NC(=O)[C@H](CO)NC(=O)[C@H](CCCNC(=N)N)NC(=O)[C@H](CCCNC(=N)N)NC(=O)[C@H](CC(C)C)NC(=O)[C@H](CO)NC(=O)[C@H](CCCNC(=N)N)NC(=O)[C@@H]2CCCN2C(=O)[C@H](C)NC(=O)[C@@H](N)[C@@H](C)O)CSSC[C@@H](C(=O)N[C@@H](CC(N)=O)C(=O)N[C@@H](CO)C(=O)N[C@@H](Cc2ccccc2)C(=O)N[C@@H](CCCNC(=N)N)C(=O)N[C@@H](Cc2ccc(O)cc2)C(=O)O)NC(=O)CNC(=O)[C@H](CC(C)C)NC(=O)CNC(=O)[C@H](CO)NC(=O)[C@H](CCC(N)=O)NC(=O)[C@H](C)NC(=O)[C@H](CCCNC(=N)N)NC1=O [ANF23] (H-TAPRSLRRSSCFGGRIDRIRAQSGLGCNSFRY-OH; disulfide 11-27)
IC50 (hNPR-C): 4190 pM | IC50 (hNPR-A): 44 pM | Half-Life ([1]; FIG. 6: ANF variants 0.5 mg/ml, endopeptidase 11.24 (NEP) 0.225 mg/ml): 12.3 h

CC[C@H](C)[C@@H]1NC(=O)[C@H](CCCNC(=N)N)NC(=O)[C@H](CC(=O)O)NC(=O)[C@H]([C@@H](C)CC)NC(=O)[C@H](CC(=O)O)NC(=O)CNC(=O)[C@H](CCCNC(=N)N)NC(=O)[C@H](Cc2ccccc2)NC(=O)[C@@H](NC(=O)[C@H](CO)NC(=O)[C@H](CO)NC(=O)[C@H](CCCNC(=N)N)NC(=O)[C@H](CCCNC(=N)N)NC(=O)[C@H](CC(C)C)NC(=O)[C@@H](N)CO)CSSC[C@@H](C(=O)N[C@@H](CC(N)=O)C(=O)N[C@@H](CO)C(=O)N[C@@H](Cc2ccccc2)C(=O)N[C@@H](CCCNC(=N)N)C(=O)N[C@@H](Cc2ccc(O)cc2)C(=O)O)NC(=O)CNC(=O)[C@H](CC(C)C)NC(=O)CNC(=O)[C@H](CO)NC(=O)[C@H](CCC(N)=O)NC(=O)[C@H](C)NC(=O)[C@H](CCCNC(=N)N)NC1=O [ANF28] (H-SLRRSSCFRGDIDRIRAQSGLGCNSFRY-OH; disulfide 7-23)
half-life at 32 nM/ml ([1]; human): 9.52 h

CC[C@H](C)[C@@H]1NC(=O)[C@H](CCCNC(=N)N)NC(=O)CNC(=O)CNC(=O)[C@H](Cc2ccccc2)NC(=O)[C@@H](C(C)C)NC(=O)[C@@H](NC(=O)[C@H](CO)NC(=O)[C@@H](N)CO)CSSC[C@@H](C(=O)N[C@@H](Cc2ccccc2)C(=O)N[C@@H](CCCNC(=N)N)C(=O)O)NC(=O)[C@H]([C@@H](C)CC)NC(=O)[C@H](CCCNC(=N)N)NC(=O)[C@H](CC(=O)O)NC1=O [ANF40] (H-SSC[dV]FGGRIDRICFR-OH; disulfide 3-13 (inferred); N-terminus and C-terminus assumed)
half-life at 0.5 mg/ml ([1]; human): 9.95 h

CC[C@H](C)[C@@H]1NC(=O)[C@H](CCCNC(=N)N)NC(=O)[C@H](CC(=O)O)NC(=O)[C@H]([C@@H](C)CC)NC(=O)[C@H](CC(=O)O)NC(=O)CNC(=O)[C@@H](C)NC(=O)[C@H](Cc2ccccc2)NC(=O)CCSSC[C@@H](C(=O)N[C@@H](CC(N)=O)C(=O)N[C@@H](CO)C(=O)N[C@@H](Cc2ccccc2)C(=O)N[C@@H](CCCNC(=N)N)C(=O)N[C@@H](Cc2ccc(O)cc2)C(=O)O)NC(=O)CNC(=O)[C@H](CC(C)C)NC(=O)CNC(=O)[C@H](CO)NC(=O)[C@H](CCC(N)=O)NC(=O)[C@H](C)NC(=O)[C@H](CCCNC(=N)N)NC1=O [ANF92] ([Mpa]F[dA]GDIDRIRAQSGLGCNSFRY-OH; disulfide 1-17)
half-life at 32 nM/ml [2]: 1.77 h

CC[C@H](C)[C@@H]1NC(=O)[C@H](CCCNC(=N)N)NC(=O)[C@H](CC(=O)O)NC(=O)[C@H]([C@@H](C)CC)NC(=O)[C@H](CO)NC(=O)CNC(=O)[C@H]([C@@H](C)O)NC(=O)C(c2ccccc2)NC(=O)[C@@H](NC(=O)[C@H](CO)NC(=O)[C@H](CO)NC(=O)[C@H](CCCNC(=N)N)NC(=O)[C@H](CCCNC(=N)N)NC(=O)[C@H](CC(C)C)NC(=O)[C@@H](N)CO)CSSC[C@@H](C(=O)N[C@@H](CC(N)=O)C(=O)N[C@@H](CO)C(=O)N[C@@H](Cc2ccccc2)C(=O)N[C@@H](CCCNC(=N)N)C(=O)N[C@@H](Cc2ccc(O)cc2)C(=O)O)NC(=O)CNC(=O)[C@H](CC(C)C)NC(=O)CNC(=O)[C@H](CO)NC(=O)[C@H](CCC(N)=O)NC(=O)[C@H](C)NC(=O)[C@H](CCCNC(=N)N)NC1=O (some centres unmarked) [ANF100-1] (H-SLRRSSC[ξPhg]TGSIDRIRAQSGLGCNSFRY-OH; disulfide 7-23)
IC50 (hNPR-C; Table I, read-out: Binding Affinity IC50 (pM) hNPR-C): 3.23e+06 pM | IC50 (hNPR-A; Table I, read-out: Binding Affinity IC50 (pM) hNPR-A): 187 pM
